The target in this assay is T1, dihydrofolate reductase (DHFR) (Homo sapiens, UniProt P00374).
T1 sequence (P00374 1-187): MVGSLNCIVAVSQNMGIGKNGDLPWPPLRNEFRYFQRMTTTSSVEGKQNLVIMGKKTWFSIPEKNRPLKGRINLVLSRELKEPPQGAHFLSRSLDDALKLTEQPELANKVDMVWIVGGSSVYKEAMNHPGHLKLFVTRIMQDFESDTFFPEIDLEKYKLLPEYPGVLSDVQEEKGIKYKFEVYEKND
Kind of assay: spectrophotometric DHFR activity assay. It is filed as biochemical.

By Ki is commonly meant the equilibrium dissociation constant of an inhibitor or competing ligand from its target. Higher therefore signals a looser hold on the target.

Each structure is given as a SMILES string.

The molecule `C#CCC(Cc1cnc2nc(N)nc(N)c2n1)c1ccc(C(=O)NC(CCC(=O)O)C(=O)O)cc1` (racemic) [pralatrexate] showed a Ki of 45 nM. In other words, the double-digit nanomolar range.

Source of the values: PMC2728224 (Cancer Chemotherapy and Pharmacology, 2009).
